According to BindingDB's records for doi:10.1021/jm970524i (Dupont Pharmaceuticals, 1998):

Molecular target: T1, Dimer of Gag-Pol polyprotein [489-587] (Human immunodeficiency virus 1, UniProt P04585)
T1 construct: 489-587
Assay: Protease Inhibition Assay
Procedure: Inhibition of HIV protease was measured by assay of the cleavage of a fluorescent peptide substrate. The fluorescent product (2-aminobenzoyl-Ala-Thr-His-Gln-Val-Tyr) was separated from the fluorescent substrate by anion-exchange HPLC on a Mono-Q anion-exchange column (Pharmacia), and fluorescence was monitored at an excitation wavelength of 330 nm and an emission wavelength of 430 nm. Ki values for inhibitor binding were estimated at fixed concentrations of substrate and inhibitor from fractional activity measurements by use of the modified Michaelis-Menten equation.

| Compound | Ki | Ki (pH 5.5, 37 °C) |
| --- | --- | --- |
| O=C1N(Cc2cccc([N+](=O)[O-])c2)[C@H](Cc2ccccc2)[C@H](O)[C@@H](O)[C@@H](Cc2ccccc2)N1Cc1cccc([N+](=O)[O-])c1 | 2.8 nM |  |
| NC(=O)NC1=N[C@H](Cc2ccccc2)[C@H](O)[C@@H](O)[C@@H](Cc2ccccc2)N1 [[4R-(4a,5a,6B,7B)]-[Hexahydro-5,6-dihydroxy-4,7-bis(phenylmethyl)-2H-1,3-diazepin-2-ylidene]urea] |  | > 12500 nM |
| O=C1N(Cc2cccc(CO)c2)[C@H](Cc2ccccc2)[C@H](O)[C@@H](O)[C@@H](Cc2ccccc2)N1Cc1cccc(CO)c1 [(4R,5S,6S,7R)-4,7-dibenzyl-5,6-dihydroxy-1,3-bis({[3-(hydroxymethyl)phenyl]methyl})-1,3-diazepan-2-one] | 0.14 nM |  |
| O=C1N(Cc2cccc(O)c2)[C@H](Cc2ccccc2)[C@H](O)[C@@H](O)[C@@H](Cc2ccccc2)N1Cc1cccc(O)c1 | 0.12 nM |  |
| O=C1N(Cc2ccc(O)cc2)[C@H](Cc2ccccc2)[C@H](O)[C@@H](O)[C@@H](Cc2ccccc2)N1Cc1ccc(O)cc1 | 0.12 nM |  |
